Where a name gives a salt, the structure may show the parent alone.
What was measured:
A-431 cells = experiment: Viability of A-431 epidermoid adenocarcinoma cells (MTT assay); format: cell-based, human; settings: for inhibition at 100 µM: Homo sapiens, A-431, similar comparative study (100 μM, 72 hours), read-out: inhibition of proliferation, A-431
Protocol: (§1) To quantify cell death, around the time when significant and characteristic morphological changes took place, cells were pulse-labeled for 10 minutes with [^3H]thymidine to measure DNA activity as described elsewhere [Tomono, M. and Kiss, Z. (1995), “Ethanol enhances the stimulatory effects of insulin and insulin-like growth factor-I on DNA synthesis in NIH 3T3 fibroblasts,” Biochem. Biophys. Res. Commun. 208, 63-67]. Also, cells were collected as suspensions using trypsin, an established method in cell biology, followed by re-plating of cells in fresh tissue culture medium. If no viable cells were obtained after one week in culture, it meant that the cells at the time of re-plating were dead. Survival values obtained with untreated cells were considered 100%. For the determination of relative number of viable cells after treatments, in most cases the MTT assay was used. This calorimetric assay is based on the ability of living cells, but not dead cells, to reduce 3-(4,5-dimethyl thiazol-2-yl)-2,5-diphenyltetrazolium bromide [Carmichael, J, De Graff, W. G., Gazdar, A. F., Minna, J. D. and Mitchell, J. B. (1987), “Evaluation of tetrazolium-based semi-automated calorimetric assay: Assessment of chemosensitivity testing,” Cancer Res. 47, 936-942]. For this assay, cells were plated in 96-well plates, and the MTT assay was performed both in untreated and treated cell cultures. The MTT assay also was performed at the start of treatments to allow assessment of proliferation rates in the control and treated cell cultures.
(§2) The NIH 3T3 (normal) mouse fibroblast, A431 human epidermoid adenocarcinoma, and MCF-7 human breast cancer cells were cultured in DMEM medium containing 10% FBS. The MEL-28 human melanoma cells were cultured in MEM medium containing 10% FBS. The HT-29 human colon adenocarcinoma cells were cultured in McCoy's 5a medium containing 10% FBS. The A549 human lung carcinoma cells were maintained in Ham's F12K medium containing 10% FBS. Cells were seeded into 96-well plates and treated at ˜70-90% confluency. Two hours before treatments the medium was changed for fresh 10% serum medium, and then the cells were incubated for 72 hours in the presence of 0-200 μM of CCompound1 (●) or CCompound3 (CCDTHT) (▴), as indicated. The MTT assay was used to determine cell viability after treatments. The values, shown in FIGS. 5A-5F and expressed as percent decrease in viability compared to the untreated control cells, are the mean±std. dev. of 8 incubations in one experiment. Similar results were obtained in another experiment.
(§3) NIH3T3, T47D, A-431, HT-29, and MEL-28 cells were cultured as indicated earlier. CaOV-3 human ovarian cancer cells were cultured in DMEM containing 10% FBS. ZR-75-1 human estrogen receptor-positive breast cancer cells were maintained in RPMI 1640 medium supplemented with 10% FBS. HTB-157 human fetal fibroblasts, MEL-24 human malignant melanoma cells, Hep G2 human hepatoblastoma cells, and CaCO-2 human colon adenocarcinoma cells were maintained in Eagles's MEM containing 10% FBS. MB-231 human estrogen receptor-negative breast cancer cells were maintained in Leibovitz's L-15 medium supplemented with 10% FBS. Cells were seeded into 96-well plates and treated at ˜70-90% confluency. Two hours prior to treatments the medium was changed for fresh 10% serum medium, and then the cells were incubated for 10 days in the absence (□) or presence of 50 μM CCDTHT ? or 100 μM CCDTHT (▪). The medium was changed and the cells were re-treated on days 3 and 6. The MTT assay was used to determine cell viability on day 10. The data, shown in FIG. 6, are the mean±std. dev. of 8 incubations in one experiment. (The experiment was repeated twice with similar results).
NIH 3T3, MEL-28, MEL-24, CaOV-3, ZR-75-1, and T47D cells were cultured as described above. The OVCAR human ovarian cancer cells were cultured in DMEM containing 10% FBS. Cells were seeded into 96-well plates and used at ˜60-80% confluency. […]

OVCAR cells = experiment: Viability of OVCAR ovarian cancer cells (MTT assay); format: cell-based; settings: Homo sapiens, 72 hours, read-out: Decrease in cell number (maximal decrease = 100%), OVCAR
Protocol: as §1
(§4) NIH 3T3, MEL-28, MEL-24, CaOV-3, ZR-75-1, and T47D cells were cultured as described above. The OVCAR human ovarian cancer cells were cultured in DMEM containing 10% FBS. Cells were seeded into 96-well plates and used at ˜60-80% confluency. Two hours before treatments the medium was changed for fresh 10% serum medium, and then the cells were incubated for 72 hours in the absence or presence of 100 μM of each of CC compounds as listed in TABLE 3. The inhibitory effects of CC compounds on cell proliferation are expressed as percent decrease compared to untreated cell cultures (the greater the number, the greater the inhibitory effect of the CC compound). […] Also, for the treatment of ovarian cancer and breast cancer, CCDTHT seems to be the best choice (although in this experiment CCompounds21-26 were not tested).

ZR-75-1 cells = experiment: Viability of ZR-75-1 breast cancer cells (MTT assay); format: cell-based, human; settings: for inhibition at 100 µM: Homo sapiens, ZR-75-1, 72 hours, read-out: Decrease in cell number (maximal decrease = 100%), ZR-75-1
Protocol: as §1, §3, §4

HT-29 cells = experiment: Viability of HT-29 colon adenocarcinoma cells (MTT assay); format: cell-based, human; settings: for inhibition at 100 µM: HT-29, similar comparative study (100 μM, 72 hours), read-out: inhibition of proliferation, HT-29
Protocol: as §1, §2
as §3, with “The MTT assay was used to determine cell viability on day 10. The data, shown in FIG. 6, are the mean±std. dev. of 8 incubations in one experiment. (The experiment was repeated twice with similar results).” left out

PC-3 cells = experiment: Proliferation of PC-3 prostate cancer cells; format: cell-based; settings: Homo sapiens, similar comparative study (100 μM, 72 hours)
[1] = Body weight of animals in the MXT tumor model; format: in vivo, mouse; settings: Example 31, CisPt 2 mg/kg i.p. and/or CCDTHT 4.6 mg/kg s.c.
Protocol: The mouse mammary MXT tumor was developed as described above. […] CCDTHT and CisPt were administered subcutaneously and intraperitoneally, respectively, once daily for 10 days, including a 2-day rest period after 5 days of treatment (i.e., the last treatment was on day 19). Each group consisted of 7 animals, and the mean values±std. dev. for tumor volumes and body weight are shown in TABLE 4 and TABLE 5, respectively.
The mouse mammary MXT tumor model was developed and treated as described above. […] CisPt and PALP were administered intraperitoneally and subcutaneously, respectively, seven times on every second day (i.e., treatments were terminated on day 21). Each group included 7 animals; the mean values±std. dev. for tumor volumes and body weight are shown in TABLE 6 and TABLE 7, respectively.
The mouse mammary MXT tumor model was developed and treated as described above. […] In each group 7 mice were included. The mean values±std. dev. for tumor volumes and body weights are shown in TABLE 9 and TABLE 10, respectively.

A549 cells = experiment: Viability of A549 lung carcinoma cells (MTT assay); format: cell-based, human
Protocol: To quantify cell death, around the time when significant and characteristic morphological changes took place, cells were pulse-labeled for 10 minutes with [^3H]thymidine to measure DNA activity as described elsewhere [Tomono, M. and Kiss, Z. (1995), “Ethanol enhances the stimulatory effects of insulin and insulin-like growth factor-I on DNA synthesis in NIH 3T3 fibroblasts,” Biochem. Biophys. Res. Commun. 208, 63-67]. Also, cells were collected as suspensions using trypsin, an established method in cell biology, followed by re-plating of cells in fresh tissue culture medium. If no viable cells were obtained after one week in culture, it meant that the cells at the time of re-plating were dead. […]
The NIH 3T3 (normal) mouse fibroblast, A431 human epidermoid adenocarcinoma, and MCF-7 human breast cancer cells were cultured in DMEM medium containing 10% FBS. […] The values, shown in FIGS. 5A-5F and expressed as percent decrease in viability compared to the untreated control cells, are the mean±std. dev. of 8 incubations in one experiment. […]
(§5) NIH 3T3, MEL-28, MEL-24, CaOV-3, ZR-75-1, and T47D cells were cultured as described above. […] The inhibitory effects of CC compounds on cell proliferation are expressed as percent decrease compared to untreated cell cultures (the greater the number, the greater the inhibitory effect of the CC compound). […]

MB-231 cells = experiment: Viability of MB-231 breast cancer cells (MTT assay); format: cell-based, human
Protocol: To quantify cell death, around the time when significant and characteristic morphological changes took place, cells were pulse-labeled for 10 minutes with [^3H]thymidine to measure DNA activity as described elsewhere [Tomono, M. and Kiss, Z. (1995), “Ethanol enhances the stimulatory effects of insulin and insulin-like growth factor-I on DNA synthesis in NIH 3T3 fibroblasts,” Biochem. Biophys. Res. Commun. 208, 63-67]. Also, cells were collected as suspensions using trypsin, an established method in cell biology, followed by re-plating of cells in fresh tissue culture medium. If no viable cells were obtained after one week in culture, it meant that the cells at the time of re-plating were dead. Survival values obtained with untreated cells were considered 100%. For the determination of relative number of viable cells after treatments, in most cases the MTT assay was used. […]
as §5

| Compound | inhibition at 100 µM (A-431 cells) [%] | inhibition at 100 µM (OVCAR cells) [%] | inhibition at 100 µM (ZR-75-1 cells) [%] | further results |
| --- | --- | --- | --- | --- |
| CC[NH+](CC)CCCOCc1ccc2sc3ccccc3c(=O)c2c1 [CCcompound12, 2-{[3-(Diethylamino)propoxy]meth-yl}-9H-thioxanthen-9-one hydrochloride] | 68 to 74 | 30 | 17 | – |
| C[N+](C)(CCO)Cc1ccc2sc3ccccc3c(=O)c2c1 [CCcompound13, 2-Hydroxy-N,N-dimethyl-N-[(9-oxo-9H-thioxanthen-2-yl)methyl]-ethanaminium bromide] | – | 27 | 48 | – |
| C[N+](C)(CCCO)Cc1ccc2sc3ccccc3c(=O)c2c1 [CCcompound15, 3-Hydroxy-N,N-dimethyl-N-[(9-oxo-9H-thioxanthen-2-yl)methyl]propane-1-aminium bromide] | – | 26 | 41 | – |
| CC[N+](CC)(CCO)Cc1ccc2sc3ccccc3c(=O)c2c1 [CCcompound14, 2-Hydroxy-N,N-Diethyl-N-[(9-oxo-9H-thioxanthen-2-yl)methyl]-ethanaminium bromide] | – | 65 | 53 | inhibition at 100 µM (HT-29 cells; Homo sapiens): 63 to 71% |
| CC[N+](CC)(CCCO)Cc1ccc2sc3ccccc3c(=O)c2c1 [CCcompound16, 3-Hydroxy-N,N-diethyl-N-[(9-oxo-9H-thioxanthen-2-yl)methyl]-propane-1-aminium bromide] | – | 0 | 39 | – |
| CC[N+](C)(CC)CCOCc1ccc2sc3ccccc3c(=O)c2c1.[I-] [CCDTHT, N,N-diethyl-N-methyl-2-[(9-oxo-9H-thioxanthen-2-yl)methoxy]-ethanaminium iodide] | 68 to 74 | 63 | 74 | inhibition at 100 µM (PC-3 cells): 54 to 55%; decrease in viability, A-431 (A-431 cells; 0-200 μM, 72 hours, MTT): similarly large effects; sensitivity to the inhibitory actions, A-431 (A-431 cells; 50 and 100 μM, 10 days, MTT): very sensitive; reduction of cell numbers, HT-29, CCDTHT versus CCompound1 (HT-29 cells; 0-200 μM, 72 hours, MTT): clearly more effective than CCompound1; decrease in the number of viable cells versus 0.5 mM HC-3, HT-29 (HT-29 cells; 100 μM, 72 hours, MTT): much greater decreases in the number of viable cells compared to 0.5 mM HC-3; cytotoxicity at 100 µM (HT-29 cells; Homo sapiens, HT-29, 240 h, 100 μM, 10 days, MTT, read-out: reduction in the number of viable cells, HT-29): ≤ 50%; Body weight, Day 14 ([1]; once daily): 25.1 ± 0.84 g; Body weight, Day 18 ([1]; once daily): 26.9 ± 0.93 g; Body weight, Day 21 ([1]; once daily): 28.8 ± 0.91 g; Body weight, Day 7 ([1]; start of treatment): 22.8 ± 0.82 g; reduction of cell numbers, A-549, CCDTHT versus CCompound1 (A549 cells; 0-200 μM, 72 hours, MTT): clearly more effective than CCompound1; sensitivity to the inhibitory actions, ZR-75-1 (ZR-75-1 cells; 50 and 100 μM, 10 days, MTT): very sensitive; sensitivity to the inhibitory actions, MB-231 (MB-231 cells; 50 and 100 μM, 10 days, MTT): moderately sensitive |
| CC[N+](C)(C)CCCOCc1ccc2sc3ccccc3c(=O)c2c1 [CCcompound11, N,N-Dimethyl-N-ethyl-3-[(9-oxo-9H-thioxanthen-2-yl)methoxy]-propane-1-aminium iodide] | – | 62 | 75 | inhibition at 100 µM (PC-3 cells): 54 to 55%; inhibition at 100 µM (HT-29 cells; Homo sapiens): 63 to 71%; inhibition at 100 µM (A549 cells; Homo sapiens, A549, similar comparative study (100 μM, 72 hours), read-out: inhibition of proliferation, A549): 68%; inhibition at 100 µM (MB-231 cells; Homo sapiens, similar comparative study (100 μM, 72 hours), read-out: inhibition of proliferation, MB-231): 75% |
| CC[N+](C)(CC)CCCOCc1ccc2sc3ccccc3c(=O)c2c1 [CCcompound10, N,N-Diethyl-N-methyl-3-[(9-oxo-9H-thioxanthen-2-yl)methoxy]-propane-1-aminium iodide] | – | 38 | 65 | – |
| CC[N+](CC)(CC)CCCOCc1ccc2sc3ccccc3c(=O)c2c1 [CCcompound9, N,N,N-Triethyl-3-[(9-oxo-9H-thioxanthen-2-yl)methoxy]-propane-1-aminium iodide] | 68 to 74 | 41 | 70 | – |
